Results published in US12295396B2, “Antagonists of T2R54 and compositions and uses thereof” (Firmenich Incorporated, priority 2018, dated 2025).
Like-named read-outs stand apart in the source and are kept apart here.

Biological target: T1, hT2R54 (Homo sapiens, UniProt P59534)
T1 construct: expressed in transfected cells; it overexpresses a promiscuous G protein
T1 sequence (P59534 1-338): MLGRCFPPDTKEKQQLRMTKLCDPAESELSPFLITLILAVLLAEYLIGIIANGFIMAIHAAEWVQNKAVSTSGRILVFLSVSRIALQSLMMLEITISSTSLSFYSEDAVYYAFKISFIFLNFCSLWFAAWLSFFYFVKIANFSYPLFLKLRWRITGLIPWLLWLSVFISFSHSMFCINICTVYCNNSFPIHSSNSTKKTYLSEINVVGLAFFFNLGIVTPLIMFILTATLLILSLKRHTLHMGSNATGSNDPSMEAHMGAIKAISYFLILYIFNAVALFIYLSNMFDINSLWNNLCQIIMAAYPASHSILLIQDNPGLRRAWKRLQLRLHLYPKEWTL
Assay: Cell-based assay for measuring hT2R54 inhibition (FLIPR calcium, Fluo4AM, acetaminophen as bitter agonist)
Conditions: for IC50: read-out: hT2R54 IC50
Summary of the method: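 Cells stably co-expressing hT2R54 and a promiscuous G protein were loaded with Fluo4AM and given acetaminophen dose series, alone or with fixed concentrations of test compound. On FLIPR, baseline was recorded for 10 s and fluorescence for 3 min after addition. IC50 is the concentration halving the acetaminophen-alone response.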

[1] = Table 2, cells stably expressing hT2R54 and a promiscuous G protein
[2] = Table 4, cells stably expressing hT2R54 and a promiscuous G protein
[3] = Table 5, cells stably expressing hT2R54 and a promiscuous G protein
[4] = Table 3, cells stably expressing hT2R54 and a promiscuous G protein

Row | SMILES | IC50 [1] | IC50 (Table 8) | further results
1 | CC(=O)c1cc2c(cc1NC(=O)CN1CCN(C(=O)CC3CC3)CC1)OCO2 [compound 15] | 24 nM | – | –
2 | CC(=O)c1cc2c(cc1NC(=O)CC1CCN(C(=O)Cc3cccc(O)c3)CC1)OCO2 [compound 253] | – | 750 nM | –
3 | CC(=O)c1cc2c(cc1NC(=O)CN1CCN(C(=O)c3cccnc3)CC1)OCCO2 [compound 326] | 40 nM | – | –
4 | CCOC(=O)C1CCCN(CC(=O)Nc2cc3c(cc2Cl)OCCO3)C1 (centres unmarked) [compound 151] | – | – | IC50 [2]: 152 nM
5 | CCNC(=O)C1CCN(CC(=O)Nc2cc3c(cc2C(C)=O)OCO3)CC1 [compound 162] | – | – | IC50 [3]: 747 nM
6 | CC(=O)c1cc2c(cc1NC(=O)CC1CCCN(C(=O)c3ccco3)C1)OCO2 (centres unmarked) [compound 194, N-(6-Acetylbenzo[d][1,3]dioxol-5-yl)-2-(1-(furan-2-carbonyl)piperidin-3-yl)acetamide] | – | 6 nM | –
7 | CCOC(=O)C1CN(CC(=O)Nc2cc3c(cc2OC)OCO3)CCO1 (centres unmarked) [compound 444] | – | – | IC50 [2]: 505 nM
8 | COCC(C(=O)Nc1cc2c(cc1C(C)=O)OCO2)N1CCN(C(=O)[C@H]2CCCO2)CC1 (some centres unmarked) [compound 320] | 1600 nM | – | –
9 | CC(=O)Nc1ccc(O)cc1 [acetaminophen, reference compound] | – | – | response of hT2R54-expressing cells to bitter tastant (FIG. 1, cells expressing hT2R54, not control host cells): measurable change in intracellular calcium
10 | CCOC(=O)[C@@H]1CCCC[C@H]1N(C)CC(=O)Nc1cc2c(cc1C(C)=O)OCO2 [compound 137] | – | – | IC50 [2]: 2830 nM
11 | CC(=O)c1cc2c(cc1NC(=O)CC1CCCN(C(=O)CN(C)C)C1)OCO2 (centres unmarked) [compound 212] | – | > 1000 nM | –
12 | CC(=O)c1cc2c(cc1NC(=O)CN1CCN(C(=O)C3CCCO3)CC1)OCCO2 (centres unmarked) [compound 340] | 90 nM | – | –
13 | CCOC(=O)C1CCCCN1CC(=O)Nc1cc2c(cc1C(C)=O)OCO2 (centres unmarked) [compound 113, Ethyl 1-(2-((6-Acetylbenzo[d][1,3]dioxol-5-yl)amino)-2-oxoethyl)piperidine-2-carboxylate] | – | – | IC50 [2]: 78 nM
14 | CC(=O)c1cc2c(cc1NC(=O)CC1CCN(C(=O)c3ccon3)CC1)OCO2 [compound 246] | – | 2310 nM | –
15 | CC(=O)c1cc2c(cc1NC(=O)CN1CCN(C(=O)c3ccccn3)CC1)OCO2 [compound 49] | 100 nM | – | –
16 | CC(=O)c1cc2c(cc1NC(=O)CC1CCN(C(=O)CC(C)C)C1)OCO2 (centres unmarked) [compound 263] | – | 374 nM | –
17 | CNC(=O)C1CCCN(CC(=O)Nc2cc3c(cc2C(C)=O)OCO3)C1 (centres unmarked) [compound 154, 1-(2-((6-Acetylbenzo[d][1,3]dioxol-5-yl)amino)-2-oxoethyl)-N-methylpiperidine-3-carboxamide] | – | – | IC50 [3]: 24 nM
18 | COc1cc2c(cc1NC(=O)CN1CCN(C(=O)c3nc(C)c[nH]3)CC1)OCO2 [compound 306] | 77 nM | – | –
19 | COc1cc2c(cc1NC(=O)CN1CCN(C(=O)c3ccn(C)n3)CC1)OCO2 [compound 98] | 1080 nM | – | –
20 | CC(=O)c1cc2c(cc1NC(=O)CN1CCN(C(=O)c3ccccc3)CC1)OCO2 [compound 34] | 20 nM | – | –
21 | CC(=O)c1cc2c(cc1NC(=O)CN1CCN(C(=O)c3cnn(C)c3)CC1)OCO2 [compound 66] | 17 nM | – | –
22 | COc1cccc(C(=O)N2CCN(CC(=O)Nc3cc4c(cc3C(C)=O)OCO4)CC2)c1 [compound 48] | 13 nM | – | –
23 | CCOC(=O)C1COCCN1CC(=O)Nc1cc2c(cc1C(C)=O)OCO2 (centres unmarked) [compound 128] | – | – | IC50 [2]: 79 nM
24 | COc1cc2c(cc1NC(=O)CN1CCN(CC3CCCO3)CC1)OCO2 (centres unmarked) [compound 416] | – | – | IC50 [4]: 4000 nM
25 | CC(=O)c1cc2c(cc1NC(=O)CC1CCN(C(=O)C3CCCCC3)C1)OCO2 (centres unmarked) [compound 267] | – | 2250 nM | –
26 | COc1cc2c(cc1NC(=O)CN1CCN(C(=O)c3ccc(C)o3)CC1)OCO2 [compound 89] | 80 nM | – | –
27 | CC(=O)c1cc2c(cc1NC(=O)CC1CCN(C(=O)C3CC3)C1)OCO2 (centres unmarked) [compound 265] | – | 682 nM | –
28 | CC(=O)c1cc2c(cc1NC(=O)CC1CCCN(C(=O)c3ccccc3)C1)OCO2 (centres unmarked) [compound 216] | – | 80 nM | –

Row | SMILES | IC50 [1] | IC50 (Table 8) | further results
29 | COc1ccc(CC(=O)N2CCC(CC(=O)Nc3cc4c(cc3C(C)=O)OCO4)CC2)cc1 [compound 257] | – | 1570 nM | –
30 | COC(=O)c1cc2c(cc1NC(=O)CN1CCN(C(=O)c3cn(C)nn3)CC1)OCO2 [compound 346] | 23 nM | – | –
31 | CC(=O)c1cc2c(cc1NC(=O)CN1CCN(C(=O)Cc3cccnc3)CC1)OCO2 [compound 56] | 80 nM | – | –
32 | CC(=O)c1cc2c(cc1NC(=O)CN1CCC(C(=O)Nc3ccccc3)CC1)OCO2 [compound 164] | – | – | IC50 [3]: 2090 nM
33 | CC(=O)c1cc2c(cc1NC(=O)CN1CCN(Cc3cccc(F)c3)CC1)OCO2 [compound 103] | – | – | IC50 [4]: 500 nM
34 | CC(=O)c1cc2c(cc1NC(=O)CN1CCSCC1)OCO2 [compound 422] | – | – | IC50 [2]: 50 nM
35 | CC(=O)c1cc2c(cc1NC(=O)CC1CCCN(C(=O)c3ccc(O)cc3)C1)OCO2 (centres unmarked) [compound 219] | – | 1460 nM | –
36 | CC(=O)c1cc2c(cc1NC(=O)CN1CCN(C(=O)Cc3ccoc3)CC1)OCO2 [compound 324] | 80 nM | – | –
37 | CC(=O)c1cc2c(cc1NC(=O)CN1CCN(C(=O)c3ccon3)CC1)OCO2 [compound 70] | 20 nM | – | –
38 | COc1cc2c(cc1NC(=O)CN1CCN(C(=O)Cc3ccncc3)CC1)OCO2 [compound 378] | 1100 nM | – | –
39 | CC(=O)c1cc2c(cc1NC(=O)CN1CCN(C(=O)c3ccc(C)o3)CC1)OCCO2 [compound 333] | 80 nM | – | –
40 | CC(=O)c1cc2c(cc1NC(=O)CN1CCN(C(=O)c3cc(C)c(C)o3)CC1)OCO2 [compound 290] | 10 nM | – | –
41 | COc1ccccc1CC(=O)Nc1cc2c(cc1C(C)=O)OCO2 [compound 276] | – | – | IC50 (Table 9): 804 nM
42 | CC(=O)c1cc2c(cc1NC(=O)CC1CCCC1)OCO2 [compound 517] | – | – | IC50 (Table 9): 414 nM
43 | COc1cc2c(cc1NC(=O)Cc1ccsc1)OCO2 [compound 524] | – | – | IC50 (Table 9): 868 nM
44 | CCNC(=O)C1CCCN(CC(=O)Nc2cc3c(cc2OC)OCO3)C1 (centres unmarked) [compound 450] | – | – | IC50 [3]: 668 nM
45 | COc1ccc(C(=O)N2CCN(CC(=O)Nc3cc4c(cc3C(C)=O)OCO4)CC2)cc1 [compound 47] | 21 nM | – | –
46 | CC(=O)c1cc2c(cc1NC(=O)CN1CCN(C(=O)c3cn[nH]c3)CC1)OCO2 [compound 302] | 800 nM | – | –
47 | CC(=O)c1cc2c(cc1NC(=O)CN1CCN(CC3CCCO3)CC1)OCO2 (centres unmarked) [compound 415] | – | – | IC50 [4]: 1300 nM
48 | CC(=O)c1cc2c(cc1NC(=O)CN1CCN(C(=O)c3nccn3C)CC1)OCO2 [compound 305] | 31 nM | – | –
49 | CC(=O)c1cc2c(cc1NC(=O)CC1CCN(C(=O)c3cccs3)CC1)OCO2 [compound 199, N-(6-Acetylbenzo[d][1,3]dioxol-5-yl)-2-(1-(thiophene-2-carbonyl)piperidin-4-yl)acetamide] | – | 12 nM | –
50 | COc1cc2c(cc1NC(=O)C(C)N1CCN(C(=O)OC(C)(C)C)CC1)OCO2 (centres unmarked) [compound 446] | – | – | IC50 [2]: 190 nM
51 | CC(=O)c1cc2c(cc1NC(=O)CC1CCCN(C(=O)C3CCCO3)C1)OCO2 (centres unmarked) [compound 209] | – | 56 nM | –
52 | CC(=O)c1cc2c(cc1NC(=O)CN1CCN(C(=O)c3cccnc3)CC1)OCO2 [compound 42] | 60 nM | – | –
53 | CC(=O)c1cc2c(cc1NC(=O)CN1CCN(C(=O)Cc3cccc(O)c3)CC1)OCO2 [compound 57] | 100 nM | – | –
54 | COc1cc2c(cc1NC(=O)CN1CCN(C(=O)c3ccccc3O)CC1)OCO2 [compound 92] | 440 nM | – | –
55 | CC(=O)c1cc2c(cc1NC(=O)CN1CCCC(C(=O)N3CCOCC3)C1)OCO2 (centres unmarked) [compound 159] | – | – | IC50 [3]: 497 nM

Further lines, with some results ahead:

Row | IC50 [1] | IC50 (Table 8) | SMILES | further results
56 | 600 nM | – | COc1cc2c(cc1NC(=O)CN1CCN(C(=O)c3cn(C)nc3C)CC1)OCO2 [compound 363] | –
57 | – | 130 nM | CC(=O)c1cc2c(cc1NC(=O)CC1CCN(C(=O)[C@H]3CCC(=O)O3)CC1)OCO2 [compound 474] | –
58 | – | 113 nM | CC(=O)c1cc2c(cc1NC(=O)CC1CCCN(C(=O)c3cccnc3)C1)OCO2 (centres unmarked) [compound 506] | –
59 | 400 nM | – | COc1cc2c(cc1NC(=O)CN1CCN(C(=O)c3ccccc3)CC1)OCO2 [compound 379] | –
60 | – | 150 nM | COCc1ccc(C(=O)N2CCC(CC(=O)Nc3cc4c(cc3C(C)=O)OCCO4)CC2)o1 [compound 489] | –
61 | – | 2200 nM | COC(=O)c1cc2c(cc1NC(=O)CC1CCCN(C(=O)C3CCCO3)C1)OCO2 (centres unmarked) [compound 481] | –
62 | – | > 10000 nM | COc1cc2c(cc1NC(=O)CC1CCN(C(=O)C3CCCO3)CC1)OCO2 (centres unmarked) [compound 497] | –
63 | 2100 nM | – | COC(=O)c1cc2c(cc1NC(=O)CN1CCN(C(C)=O)CC1)CCCC2 [compound 353] | –
64 | – | 700 nM | CC(=O)c1cc2c(cc1NC(=O)CC1CCN(C(=O)c3cc(C)on3)CC1)OCO2 [compound 466] | –
65 | – | 6000 nM | CC(=O)c1cc2c(cc1NC(=O)CC1CCCN(C(=O)c3cc(O)cc(O)c3)C1)OCO2 (centres unmarked) [compound 455] | –
66 | – | 160 nM | COCc1cc(C(=O)N2CCC(CC(=O)Nc3cc4c(cc3C(C)=O)OCCO4)CC2)no1 [compound 491] | –
67 | 299 nM | – | COC(=O)c1cc2c(cc1NC(=O)CN1CCN(C(=O)C3CCCO3)CC1)OCO2 (centres unmarked) [compound 350] | –
68 | – | > 10000 nM | COc1cc2c(cc1NC(=O)CC1CCN(C(C)=O)CC1)OCO2 [compound 496] | –
69 | – | 95 nM | CC(=O)c1cc2c(cc1NC(=O)CC1CCN(C(=O)c3cnn[nH]3)CC1)OCO2 [compound 459] | –
70 | 200 nM | – | COc1cc2c(cc1NC(=O)CN1CCN(C(=O)c3ccoc3)CC1)OCO2 [compound 386] | –
71 | 1560 nM | – | COc1cc2c(cc1NC(=O)CN1CCN(C(C)=O)CC1)OCO2 [compound 364] | –
